# Assay results reported in paper PMC4864350, “Fluorogenic Substrates for In Situ Monitoring of Caspase-3 Activity in Live Cells” (PLoS ONE, 2016).
# *: point of attachment. MethylRed = CN(C)c1ccc(/N=N/c2ccccc2C(=O)*)cc1; FAM = 5(6)-carboxyfluorescein; peptoid = not defined here; Ahx = NCCCCCC(=O)O
# Columns and labels:
# [1] = biological target: T1, caspase-7 (Homo sapiens, UniProt P55210); assay: Caspase-7-mediated cleavage at high enzyme concentration analysed by MALDI-TOF MS; format: biochemical; details: 10–20 μM substrate, 0.4 μM enzyme, 2 h, 37 °C
# T1 construct: purchased R&D systems, USA
# T1 sequence (P55210 24-198 limits assumed): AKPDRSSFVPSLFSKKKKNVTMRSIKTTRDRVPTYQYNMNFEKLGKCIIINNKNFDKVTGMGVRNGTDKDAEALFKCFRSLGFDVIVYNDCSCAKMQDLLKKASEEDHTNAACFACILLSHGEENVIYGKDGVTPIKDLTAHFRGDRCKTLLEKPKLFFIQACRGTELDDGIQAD
# T1 sequence (P55210 207-303 limits assumed): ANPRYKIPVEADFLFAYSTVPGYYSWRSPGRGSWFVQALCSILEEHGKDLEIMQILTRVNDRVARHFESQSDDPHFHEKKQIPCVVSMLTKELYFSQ
# Experimental: To confirm how specific 11, 12 and 14 were for caspase-3, these substrates were incubated with high enzyme concentrations (10–20 μM substrate, 0.4 μM enzyme) and the caspase-mediated cleavage analysed by MALDI-TOF MS.
# S2 Fig. (A) MALDI-TOF MS spectra of substrate 11 (sequence Asp-Ala-Pro-Asp). (B) After incubation (20 µM) with Caspase-3 for 2 h. (C) After incubation (20 µM) with Caspase-7 for 2 h (detected as the PBS adduct.)
# Caspase-3 or caspase-7 (R&D systems, USA) was added to 100 µL of caspase assay buffer (final enzyme concentration 0.4 µM) with the substrates at 10–20 µM. The samples were incubated in Eppendorf Thermomixer® Comfort shaking at 1200 rpm for 2h at 37 °C. MALDI -TOF mass spectra were recorded as described in Table S1 .
# (§1) (1 picture or pasted object on this page, not shown here)
# [2] = test system: HEK293T cells; assay: Flow cytometry detection of caspase-3 activity in live cells; format: cell-based; details: 27 at 10 μM, 5 h
# Experimental: Fig 4 Flow cytometry analysis of healthy and apoptotic HEK293T cells treated with substrate 27. The cells were incubated 5 h with fluorogenic substrate 27 (10 μM), detached, and analysed by flow cytometry (λEx/Em 488/530 nm, x-axis = fluorescence intensity). (A) Healthy, non-apoptotic cells. (B) Apoptotic cells (induced by 1 μM staurosporine). TEXT PRINTED IN THE PICTURE: (A) no label printed: FITC - 92.7%; FITC + 7.28% | (B) no label printed: FITC - 1.57%; FITC + 98.4% […]
# Cell culture was performed in a Heracell 150 incubator (Heraeus) and in a Herasafe KS 18 class II negative-flow cabinet (Heraeus). HEK293T and MCF-7 cells (cultured in high glucose (4.5 mg/mL) DMEM supplemented with 4 mM glutamine, 100 units/mL penicillin, 10 mg/mL streptomycin and 25 mg/mL amphotericin B, and 10% FBS) were seeded onto a 48-well plate at a density of 10^4 cells per well. After 12 hours, the media was removed and substrates 1–14 added at 10 μM in fresh media. Selected wells were also treated with staurosporine (1 μM). After 5 hours, the cells were washed twice with PBS, detached with trypsin/EDTA, harvested with 2% FBS in PBS supplemented with Trypan Blue (0.04%) for analysis on a BD FACSAria® flow cytometer. Fluorescence was evaluated as mean fluorescence intensity (MFI) and estimated <100 u.a. for untreated control cells (consistent values independently of staurosporine addition). Apoptotic cells treated with substrate 1 were used as a positive control to obtain the maximum of fluorescence signal. 50,000 events per sample were plotted in two-dimensional dot plots based on forward and side scattering. The cellular size and complexity (SSC-H vs. FSC-H) were used to gate two populations (alive/apoptotic cells) (debri excluded). The data were analysed using the software Flowjo® 7.5.
# Quantification of caspase-3 in apoptotic cells by flow cytometry
# Localisation of apoptotic cells by flow cytometry. Flow cytometry analysis of morphology (SSC-A) and size (FSC-A) of HEK293T cells without (left image) and with (right image) treatment with 1 µM staurosporine for 4 h.
# Calculation of active caspase-3 concentration inside cells
# Substrate 27 was used to quantify caspase-3 per cell.1
# 1. Calculate FAM-Ahx-Leu-Pro-Asp released per cell:
# Fluorescein-labelled microspheres (0.5% SC, ≈ 2 mmol/g),2 were used to generate the standard curve for fluorescence intensity versus amount of the fluorophore (nmol) by flow cytometry (see below).
# Kossler, S.; Nofziger, C.; Jakab, M.; Dossena, S.; Paulmichl, M. Toxicology, 2012, 292, 123-135.
# 2 a) A. uncit-Broceta, E.M.V. Johansson, R.M. Yusop, R.M. Sanchez-Martin and M. Bradley, Nat.
# Protocol, 2012, 7, 1207-1218. b) J.M. Cardenas-Maestre and R.M. Sanchez-Martin, Org. Biomol. Chem., […]
# as §1
# FAM standard curve to determine conversion factor (7x109 MFI/nmol) representing FI (Fluorescence Intensity) versus FAM quantity (nmol).
# To determine the concentration of FAM-Ahx-Leu-Pro-Asp released per cell (nmol/cell) = [FI/cell – FI0/cell]/7x109 FI/nmol
# Assuming 20 µm cell diameter and 2/3 of that for the nucleus, the cytoplasmic volume of HEK293T cell is 3 pl (VC).1,3
# FAM-Ahx-Leu-Pro-Asp released per cell (M) = FAM-Ahx-Leu-Pro-Asp released per […]
# 2. Calculate the rate of product formation V0 with 5 h staurosporine treatment:
# V0 = d[P]/dt = FAM-Ahx-Leu-Pro-Asp released per cell (mM)/18000 sec
# 3. Quantify the concentration of the enzyme per cell at high substrate concentrations (enzyme saturation) […]
# kcat = 0.04 s-1 (sensor 27 DLPDK)
# [E] = enzyme concentration per cell (nM)
# [Caspase-3] = 15.65 ± 0.46 nM (1.3 ng active caspase 3 per 106 apoptotic staurosporine- […]
# 3 Y. Liu, X. Yan and T. Zhou, PLOS one, 2013, 8, 8.
# 4. Quantify the number of molecules per cell of caspase-3
# NoE (number of enzyme molecules per cell) = [E]xVCxNA […]
# [3] = test system: MCF-7 cells; assay: Confocal imaging of staurosporine-treated cells lacking functional caspase-3; format: cell-based; details: cells lack functional caspase-3 but express caspase-7
# Experimental: Fig 5 Confocal microscopy images of HEK293T and MCF-7 cells treated with substrate 27. Confocal microscopy images (objective HCX PL APO ×63/1.40–0.6 Oil CS) of HEK273T cells with substrate 27 (10 μM) without staurosporine (STS) (A) and with staurosporine (1 μM) (B) induced apoptosis (green fluorescence is from fluorescein “turned on” by caspase-3 cleavage of the substrate, blue is DAPI nuclear stain). (C) Staurosporine treated MCF-7 cells with substrate 27.
# Cell culture was performed in a Heracell 150 incubator (Heraeus) and in a Herasafe KS 18 class II negative-flow cabinet (Heraeus). […] Fluorescence was evaluated as mean fluorescence intensity (MFI) and estimated <100 u.a. for untreated control cells (consistent values independently of staurosporine addition). Apoptotic cells treated with substrate 1 were used as a positive control to obtain the maximum of fluorescence signal. […] The data were analysed using the software Flowjo® 7.5.
# For confocal microscopy, the cells were fixed with 4% paraformaldehyde in PBS and the nuclei stained with Hoechst-33342 (1% w/v in PBS). Cellular fluorescence of cells was analysed using an Inverted Leica DM IRB with filter I3 (450–490 nm) and a Leica SP5 Confocal (FITC and DAPI channel).
# [4] = apoptosis induced by 1 μM staurosporine (Fig 4B)
substance,measurement,setting,value
"substrate 27: FAM-Ahx-Asp-Leu-Pro-Asp-Lys(MR)-Ahx, conjugated to the cell penetrating peptoid at the C-terminus ({FAM-Ahx}-DLPDK(MethylRed)-{Ahx-peptoid}; reading uncertain; also: printed as FAM-Ahx-Asp-Leu-Pro-Asp-Lys(MR)-Ahx)",cleavage by caspase-7 (MALDI-TOF MS),[1],did not show any cleavage
same,"FITC + cells, apoptotic",[2]; [4],98.4%
same,"FITC - cells, apoptotic",[2]; [4],1.57%
same,increase in fluorescence without staurosporine,"[2]; no staurosporine, flow cytometry",no increase observed
same,"FITC + cells, healthy",[2]; non-apoptotic cells (Fig 4A),7.28%
same,"FITC - cells, healthy",[2]; non-apoptotic cells (Fig 4A),92.7%
same,increase in the fluorescence intensity of the cells after apoptotic stimulation,"[2]; staurosporine 1 μM, flow cytometry λEx/Em 488/530 nm",2.5 fold
same,fluorescence turn-on in apoptotic MCF-7 cells (confocal),[3],No fluorescence “turn-on” was observed
